PubChem BioAssay (NCI)
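Where inhibition never reached the appropriate level, the endpoint shown equals the highest concentration tested. Otherwise, values were interpolated linearly from a five-concentration, 48-hour dose response in 96-well plates. GI50: concentration for 50% inhibition of growth. TGI: concentration producing complete growth inhibition.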

Experiments:
Test in all cases: NCI anticancer screen, dose series, 48 h
[1] = test system: OVCAR-5 ovarian
[2] = test system: HOP-92 NSCLC
[3] = test system: RPMI-8226 leukemia
[4] = test system: SK-OV-3 ovarian
[5] = test system: K-562 leukemia
[6] = test system: HL-60(TB) leukemia
[7] = test system: NCI-H226 lung
[8] = test system: SK-MEL-5 melanoma
[9] = test system: MCF7 breast
[10] = test system: NCI/ADR-RES ovarian

Row | Compound | TGI [1] | TGI [2] | TGI [3] | TGI [4] | TGI [5] | TGI [6] | TGI [7] | GI50 [8] | TGI [8] | GI50 [9] | TGI [9] | GI50 [1] | GI50 [10] | TGI [10] | GI50 [3] | GI50 [4] | GI50 [5] | GI50 [6] | GI50 [7] | GI50 [2]
1 | CN(C)/C(N)=N/C(N)=S | > 100 µM | > 100 µM | > 100 µM | > 100 µM | > 100 µM | > 100 µM | > 100 µM |  |  |  |  |  |  |  |  |  |  |  |  | 
2 | Cc1ccc(S(=O)(=O)n2cc(-c3nnnn3-c3ccc(Cl)cc3)c(=O)c3ccccc32)cc1 | > 100 µM |  | 59 µM | > 100 µM | > 100 µM | 31 µM | > 100 µM | 70.6 µM | > 100 µM | 80.6 µM | > 100 µM | > 100 µM | > 100 µM | > 100 µM | 21.9 µM | > 100 µM | 20.1 µM | 12.9 µM | > 100 µM | 
3 | O=C(c1ccc2c3c(ccc(C(=O)C(F)(F)F)c13)CC2)C(F)(F)F | > 100 µM | 76.2 µM |  | > 100 µM |  |  | > 100 µM |  |  |  |  |  |  |  |  |  |  |  |  | 
4 | CC(O[Si](C)(C)C)C1C=CC(C)n2c(=O)n(-c3ccccc3)c(=O)n21 (stereo not given) | > 100 µM |  | > 100 µM | > 100 µM | > 100 µM | > 100 µM |  |  | > 100 µM |  |  |  |  |  |  |  |  |  |  | 
5 | CCC(/C(=N\Nc1c(Cl)cc(Cl)cc1Cl)c1ccccc1)n1ccnc1C (stereo not given) | 21.2 µM | 19.7 µM | 41 µM | 32.3 µM | 51.6 µM | 14.6 µM | 35 µM |  | 21.2 µM |  |  |  |  |  |  |  |  |  |  | 
6 | COC(=O)c1ccc(C2SCC(=O)N2NC(=O)C(O)c2ccccc2)cc1 (stereo not given) | > 100 µM | > 100 µM | > 100 µM | > 100 µM | > 100 µM |  | > 100 µM | > 100 µM | > 100 µM | > 100 µM | > 100 µM | > 100 µM |  |  | > 100 µM | > 100 µM | > 100 µM |  | > 100 µM | > 100 µM
7 | COc1ccc(Nc2ncccc2C(=O)NCc2cn(Cc3cccc(Oc4ccccc4)c3)nn2)cc1 | > 100 µM | > 100 µM | > 100 µM | 9.63 µM | > 100 µM | > 100 µM | > 100 µM | 2.9 µM | > 100 µM |  |  | 4.23 µM | 2.12 µM | 6.69 µM | 4.84 µM | 3.11 µM | 3.48 µM | 2.66 µM | 3.92 µM | 5.67 µM
8 | O=C(O)C1OC(Oc2cc(O)c3c(=O)cc(-c4ccc(O)cc4)oc3c2)C(O)C(O)C1O (stereo not given) | > 100 µM |  |  |  |  | > 100 µM | > 100 µM |  | > 100 µM |  |  |  |  |  |  |  |  |  |  | 
9 | CCC/C(=N\NC(=O)c1cc2ccccc2cc1O)C(CC)C(=O)CCC(=O)N(Cc1ccccc1)Cc1ccccc1 (stereo not given) | > 100 µM | > 100 µM | > 100 µM | > 100 µM | 69.9 µM | 40.1 µM | > 100 µM |  | 60.9 µM |  |  |  |  |  |  |  |  |  |  | 
10 | CCCN1CCN(c2ccc3nc(-c4ccc5nc(-c6ccc(OCC)c(OCC)c6)[nH]c5c4)[nH]c3c2)CC1 | 4.32 µM | 5.5 µM | 1.89 µM | 7.54 µM |  | 2.74 µM | 2.06 µM | 0.424 µM | 1.77 µM |  |  | 1.67 µM | > 100 µM | > 100 µM | 0.387 µM | 1.6 µM |  | 0.339 µM | 0.495 µM | 1 µM
